{
  "source": "patent US20220211718A1",
  "about": "“BCL-2 INHIBITORS FOR USE IN THE TREATMENT OF A BCL-2 MEDIATED CANCER CARRYING THE GLY101VAL MUTATION” (LES LABORATOIRES SERVIER, priority 2019, published 2022)",
  "key": {"Bcl-2 Asp103Tyr mutant": {"target": "Bcl-2 Asp103Tyr mutant (Homo sapiens, UniProt P10415, D103Y)", "sequence (P10415 with tags, fused parts or gaps D103Y)": "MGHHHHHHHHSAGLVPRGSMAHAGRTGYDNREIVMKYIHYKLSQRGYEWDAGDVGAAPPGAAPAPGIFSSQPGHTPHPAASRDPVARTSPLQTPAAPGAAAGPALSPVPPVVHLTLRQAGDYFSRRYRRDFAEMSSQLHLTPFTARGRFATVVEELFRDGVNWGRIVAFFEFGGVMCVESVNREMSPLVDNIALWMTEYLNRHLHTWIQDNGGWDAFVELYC", "test": "Fluorescence quenching assay (PUMA quench reagent displacement), Example 4", "format": "binding", "conditions": "50 nM peptide, about 2 hours at 18° C., ABT-199 inactive @1 μM", "from_the_text": "[…] […] […] […] […] […] […] […] […] […] […] […] […] […] […] […] […] […] […] […] […] […] […] […] […] […] […]"}, "KMS-12-PE Bcl-2 WT cells": {"tested_on": "KMS-12-PE Bcl-2 WT cells", "test": "In vitro cytotoxicity, CellTiter-Glo cell viability 72 h", "format": "cell-based", "conditions": "Homo sapiens, read-out: KMS-12-PE Bcl-2 WT C50", "experimental": "(§1) Cell lines were grown at 37° C. in a humidified atmosphere with 5% CO2 in media recommended by the suppliers. RS4;11 (ATCC® CRL1873™) were purchased from American Type Culture Collection (ATCC) and KMS-12-PE (ACC 606) from the Leibniz-Institute DSMZ (Braunschweig, Germany). Lentiviral particles containing Bcl-2 wild-type (also named ‘Bcl-2 VT’) and Bcl-2 mutated on G101V (also named ‘Bcl-2 G101V’) were cloned into pcLV-CMV-DEST-IRES-TagRFP. Lentiviral particles (1×10^6) were mixed with Polybrene at 8 μg/ml and transduced by spinoculation for 1 h at 32° C. and incubated overnight. After 8 days for KMS-12-PE and 21 days for RS4;11, TagRFP positive-cells were sorted by FACS. BCL2 expression was monitored by immunoblotting using anti-Flag and anti-BCL2 antibodies. Cells were seeded into 96-well plates and treated with 1:3.16 serial dilution of compounds (9 different concentrations). […] Results were normalized to the viability of cells without compounds (control wells). The C50 values were calculated using nonlinear regression algorithms in XCell software."}, "[1]": {"tested_on": "KMS-12-PE Bcl-2 G101V cells", "test": "In vitro cytotoxicity, CellTiter-Glo cell viability 72 h", "format": "cell-based", "conditions": "Homo sapiens, read-out: KMS-12-PE Bcl-2 G101V C50", "experimental": "as §1"}, "RS4;11 Bcl-2 G101V cells": {"tested_on": "RS4;11 Bcl-2 G101V cells", "test": "In vitro cytotoxicity, CellTiter-Glo cell viability 72 h", "format": "cell-based", "conditions": "Homo sapiens, read-out: RS4;11 Bcl-2 G101V C50", "experimental": "as §1"}, "RS4;11 Bcl-2 WT cells": {"tested_on": "RS4;11 Bcl-2 WT cells", "test": "In vitro cytotoxicity, CellTiter-Glo cell viability 72 h", "format": "cell-based", "conditions": "Homo sapiens, read-out: RS4;11 Bcl-2 WT C50", "experimental": "as §1"}, "[2]": {"tested_on": "KMS-12-PE Bcl-2 D103Y cells", "test": "In vitro cytotoxicity, CellTiter-Glo cell viability 72 h, Example 5", "format": "cell-based", "conditions": "Homo sapiens, read-out: KMS-12-PE Bcl-2 D103Y C50", "experimental": "Cell lines were grown at 37° C. in a humidified atmosphere with 5% CO2 in media recommended by the suppliers. KMS-12-PE (ACC 606) from the Leibniz-Institute DSMZ (Braunschweig, Germany). Lentiviral particles containing Bcl-2 mutated on D103Y were cloned into pcLV-CMV-DEST-IRES-TagRFP. Lentiviral particles (1×10^6) were mixed with Polybrene at 8 μg/ml and transduced by spinoculation for 1 h at 32° C. and incubated overnight. TagRFP positive-KMS-12-PE cells were sorted by FACS after 8 days. Bcl-2 expression was monitored by immunoblotting using anti-Flag and anti-Bcl-2 antibodies. Cells were seeded into 96-well plates and treated at 9 points with 1:3.16 serial dilution of compounds. […] Results were normalized to the viability of cells without compounds (control wells). The C50 values were calculated using nonlinear Regression algorithms in XCell software."}},
  "data": [
    {"compound": "CC1(C)CCC(CN2CCN(c3ccc(C(=O)NS(=O)(=O)c4ccc(NCC5CCOCC5)c([N+](=O)[O-])c4)c(Oc4cnc5[nH]ccc5c4)c3)CC2)=C(c2ccc(Cl)cc2)C1", "note": "[ABT-199, Venetoclax, reference compound]", "values": [
      {"measurement": "Bel-2 Asp103Tyr mutant K1 mean", "setting": "Bcl-2 Asp103Tyr mutant", "result": "inactive"},
      {"measurement": "IC50", "setting": "KMS-12-PE Bcl-2 WT cells", "result": 22.5, "unit": "nM"},
      {"measurement": "IC50", "setting": "[1]", "result": 931, "unit": "nM"},
      {"measurement": "IC50", "setting": "RS4;11 Bcl-2 G101V cells", "result": 130, "unit": "nM"},
      {"measurement": "IC50", "setting": "RS4;11 Bcl-2 WT cells", "result": 10.7, "unit": "nM"},
      {"measurement": "IC50", "setting": "[2]", "result": 1830, "unit": "nM"}
    ]},
    {"compound": "O=C(c1cc(-c2cc3c(cc2C(=O)N2Cc4ccccc4C[C@H]2CN2CCOCC2)OCO3)n2c1CCCC2)N(c1ccccc1)c1ccc(O)cc1", "note": "[Compound A, N-(4-hydroxyphenyl)-3-{6-[((3S)-3-(4-morpholinylmethyl)-3,4-dihydro-2(1H)-isoquinolinyl)carbonyl]-1,3-benzodioxol-5-yl}-N-phenyl-5,6,7,8-tetrahydro-1-indolizine carboxamide]", "values": [
      {"measurement": "IC50", "setting": "KMS-12-PE Bcl-2 WT cells", "result": 57.3, "unit": "nM"},
      {"measurement": "IC50", "setting": "[1]", "result": 961, "unit": "nM"},
      {"measurement": "IC50", "setting": "RS4;11 Bcl-2 G101V cells", "result": 495, "unit": "nM"},
      {"measurement": "IC50", "setting": "RS4;11 Bcl-2 WT cells", "result": 82.3, "unit": "nM"}
    ]},
    {"compound": "Cc1c(N(C(=O)c2cc(-c3cc(Cl)ccc3C(=O)N3Cc4ccccc4C[C@H]3CN3CCOCC3)n(C)c2C)c2ccc(O)cc2)cc(C#N)n1C", "note": "[Compound B, 5-(5-chloro-2-{[(3S)-3-(morpholin-4-ylmethyl)-3,4-dihydroisoquinolin-2(1H)-yl]carbonyl}phenyl)-N-(5-cyano-1,2-dimethyl-1H-pyrrol-3-yl)-N-(4-hydroxyphenyl)-1,2-dimethyl-1H-pyrrole-3-carboxamide]", "values": [
      {"measurement": "IC50", "setting": "KMS-12-PE Bcl-2 WT cells", "result": 21, "unit": "nM"},
      {"measurement": "IC50", "setting": "[1]", "result": 179, "unit": "nM"},
      {"measurement": "IC50", "setting": "RS4;11 Bcl-2 G101V cells", "result": 60.4, "unit": "nM"},
      {"measurement": "IC50", "setting": "RS4;11 Bcl-2 WT cells", "result": 9.03, "unit": "nM"},
      {"measurement": "IC50", "setting": "[2]", "result": 83.7, "unit": "nM"}
    ]}
  ]
}
